This is an account of results in PMC7144940, “Principles of RNA and nucleotide discrimination by the RNA processing enzyme RppH” (Nucleic Acids Research, 2020).

Entries after “also recorded” stand apart in the source; their conditions may differ. Where two headings read alike, the source gives them in different places.

In assay [1] the target is T1, Escherichia coli RppH (Escherichia coli, UniProt P0A776). The format is biochemical. The arrangement: 0.1 mM substrate and 1 μM full-length RppH in case of nucleotides; decahistidine (N, cleaved yes); SUMO (N, cleaved yes); made in house; host or cells: E. coli BL21(DE3). The conditions noted are these: for hydrolysis by RppH (TLC): 1 mM substrate, 5 μM RppH, 37°C, 1 h. On the procedure:
Reactions for thin layer chromatography (TLC) were performed with 1 mM nucleotide substrates and 5 μM of the full-length RppH, in a 10-μl solution containing 10 mM MgCl2 and 50 mM buffer with different pH. Buffers were: MES-NaOH, pH 6.0; Na-cacodylate-HCl, pH 6.5; MOPS-NaOH, pH 7.0; HEPES-NaOH, pH 7.5; Tris-HCl, pH 8.0, 8.5 and 9.0. Reactions were incubated at 37°C for 1 h and quenched with 5 μl of 150 mM ethylenediaminetetraacetic acid (EDTA). Samples were analyzed on PEI-cellulose plates (F-254, Selecto Scientific) in 0.3 M potassium phosphate buffer, pH 7.5, for adenosine triphosphate (ATP), adenosine diphosphate (ADP), GTP, GDP, pppAG (RNA), ppGpp and pppGpp, and pH 3.3 for CTP and CDP, UTP and UDP. RNAs were visualized by UV254 shadowing. The equimolar amount of wild-type E. coli DapF ([8]) was added to the reactions for testing RppH activity stimulation at pH 7.5. Inhibition of RppH activity was conducted using NaF (Sigma-Aldrich) at 1–10 mM. For TLC experiments, original colored images were converted to black-and-white images, and the levels of brightness were adjusted to enhance the contrast and better visualize reaction products.
Target sequence in this assay (P0A776 whole entry): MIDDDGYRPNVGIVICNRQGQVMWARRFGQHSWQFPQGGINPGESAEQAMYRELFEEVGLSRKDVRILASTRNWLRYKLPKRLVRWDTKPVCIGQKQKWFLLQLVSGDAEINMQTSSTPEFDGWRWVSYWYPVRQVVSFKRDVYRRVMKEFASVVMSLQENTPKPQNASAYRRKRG

In assay [2] the target is T1, Escherichia coli RppH. The assay is classed as biochemical. The following applies: for initial reaction rate of hydrolysis by RppH: nucleotide substrate 0.1 mM, 1 μM full-length RppH, pH 7.5, 10 mM MgCl2, 37°C, linear regression, n = 2, error is SE. Details: 0.1 mM substrate and 1 μM full-length RppH in case of nucleotides; decahistidine (N, cleaved yes); SUMO (N, cleaved yes); made in house; host or cells: E. coli BL21(DE3). On the procedure: (§1) RppH activity on pppAG and ppAG RNAs, NTPs, NDPs, and ppGpp was determined by kinetic analysis, as described in ref. ([6]). Each reaction mixture contained 0.1 mM substrate and 1 μM full-length RppH in case of nucleotides and 0.1 μM RppH in case of RNA, in a 50-μL solution containing 50 mM HEPES-NaOH, pH 7.5, 10 mM MgCl2 , 0.1% Triton X-100, at 37°C. Reactions were incubated for 0–20 min and quenched with 750 μl of 50 mM sodium acetate, pH 4.5. The quenched reaction samples were analyzed by anion-exchange chromatography on a 5 × 50 mm MonoQ column (GE Healthcare). The reaction products and remaining substrates were eluted with a 0–1.0 M NaCl gradient in 10 mM Tris-HCl, pH 7.5, detected at 260 nm, and the amount of each mono- or oligonucleotide was calculated by using the integration function in UNICORN software (GE Healthcare). The initial reaction rates were calculated based on the ratio between remaining substrate and reaction products using a linear fit model of GraphPad. Each assay was repeated at least twice.
Target sequence in this assay (P0A776 whole entry): as above

In assay [3] the target is T1, Escherichia coli RppH. Briefly: Competition experiments: inhibition of RNA hydrolysis by nucleotides. Details: 0.1 mM substrate and 1 μM full-length RppH in case of nucleotides; decahistidine (N, cleaved yes); SUMO (N, cleaved yes); made in house; host or cells: E. coli BL21(DE3). The assay is classed as biochemical. How it is done: as §1
Competition experiments were conducted using the same protocol as cleavage assays with the 0.1 mM substrate RNA concentration, the nucleotide concentration ranging between 0.1-5.0 mM, and 10 min incubation. The initial reaction rates were calculated based on the ratio between reaction products and remaining substrate using a linear fit model of GraphPad software. Because of peak overlap, inhibition of GTP hydrolysis was determined solely based on quantification of the reaction products. IC50 values were determined using an IC50 model of GraphPad.
Target sequence in this assay (P0A776 whole entry): as above

Assay [4] has as its target T1, Escherichia coli RppH. Briefly: Metal dependence of RppH reactivity (TLC). The assay is classed as biochemical. The arrangement: RppHd (Δ161-176); Nterm-Ser0-Met1; decahistidine (N, cleaved yes); SUMO (N, cleaved yes); made in house; host or cells: E. coli BL21(DE3). The conditions noted are these: 5 mM substrate, 5 μM RppHd. How it is done: Reactions were performed with 5 mM GTP and 5 μM RppHd, in a 20-μL solution containing 10 mM divalent cation salt (MgCl2, MnCl2, NiCl2, or CaCl2) and 50 mM buffer with different pH (HEPES-Na, pH 7.5; Tris-HCl, pH 8.0, 8.5, 9.0). Reactions were incubated at 37 °C for 1 h and quenched with 10 μL 150 mM EDTA. Samples were analyzed on PEI-cellulose plates in 0.3 M potassium phosphate buffer, pH 7.5, at room temperature. RNAs were visualized by UV254 shadowing.
Target sequence in this assay (P0A776 1-160): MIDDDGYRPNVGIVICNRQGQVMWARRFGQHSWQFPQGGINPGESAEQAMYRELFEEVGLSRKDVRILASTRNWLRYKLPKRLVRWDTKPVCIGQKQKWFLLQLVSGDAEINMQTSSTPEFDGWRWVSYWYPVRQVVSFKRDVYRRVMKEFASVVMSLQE

The target in assay [5] is T2, DapFm (E. coli DapF with Y268A and R36A mutations) (Escherichia coli, UniProt P0A6K1 1-274, Y268A | R36A).
T2 construct: extra serine left at the N-terminus of all proteins by the ULP1 cleavage of the His10-SUMO tags; DapF (diaminopimelate epimerase), Escherichia coli, mutated variant of the full-length protein with Y268A and R36A; source: E. coli BL21(DE3), purified (HisTrap FF, tag cleavage by ULP1, Superdex 200); not shown: decahistidine, N-terminal, cleaved; SUMO, N-terminal, cleaved
T2 sequence: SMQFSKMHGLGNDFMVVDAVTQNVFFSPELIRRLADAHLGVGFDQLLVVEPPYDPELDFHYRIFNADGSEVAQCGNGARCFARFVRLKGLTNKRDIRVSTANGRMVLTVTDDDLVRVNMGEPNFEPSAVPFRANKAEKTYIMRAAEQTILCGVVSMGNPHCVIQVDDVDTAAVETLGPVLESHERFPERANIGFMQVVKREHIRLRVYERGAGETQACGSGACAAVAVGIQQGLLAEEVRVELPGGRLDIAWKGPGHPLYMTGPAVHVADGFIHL
Kind of assay: crystal structure; RppHt-DapFm complex formed by mixing DapFm and RppHt at a molar ratio of 1:1.2 (20 mM Tris-HCl pH 8.0, 500 mM NaCl, 1 mM DTT), purified on Superdex 200; crystals from 30% PEG400, 0.1 M CHES pH 9.2, 18°C; soaked with GTP, GDP or pppGpp with MgCl2 and NaF. The following applies: both partners purified.

Setting [6] is: longer incubation, pH 7.5, 1 μM RppH.

Turning to `Nc1ccn([C@@H]2O[C@H](COP(=O)(O)OP(=O)(O)OP(=O)(O)O)[C@@H](O)[C@H]2O)c(=O)n1` [CTP, cytidine triphosphate], the “hydrolysis by RppH (TLC)” value on Escherichia coli RppH [1] (pH 8.5 and 9.0) is reported as “majority”.

For `Nc1ncnc2c1ncn2[C@@H]1O[C@H](COP(=O)(O)OP(=O)(O)O)[C@@H](O)[C@H]1O` [ADP, adenosine diphosphate], the “hydrolysis by RppH (TLC)” value on Escherichia coli RppH [1] (pH 8.0) is “all”.

Consider `O=c1ccn([C@@H]2O[C@H](COP(=O)(O)OP(=O)(O)O)[C@@H](O)[C@H]2O)c(=O)[nH]1` [UDP], for which the “hydrolysis by RppH (TLC)” value at Escherichia coli RppH [1] (pH 8.0) is listed as “almost all”.

By IC50 is commonly meant the concentration that inhibits the measured activity by half. As to `Nc1nc2c(ncn2[C@@H]2O[C@H](COP(=O)(O)OP(=O)(O)O)[C@@H](O)[C@H]2O)c(=O)[nH]1` [GDP], the “conversion of substrate, without approaching a plateau” value on Escherichia coli RppH [2] (setting [6]) is reported as approximately 50%. The “initial reaction rate of hydrolysis by RppH” value (from here on “initial reaction rate”) at Escherichia coli RppH [2] came to 3.4 ± 0.07 µM/min. Also, the IC50 at Escherichia coli RppH [3] (0.1 mM ppAG RNA, nucleotide 0.1-5.0 mM, 10 mM Mg2+, pH 7.5, 10 min, n = 2, mean ± SE, GTP value estimated from a smooth curve, read-out: IC50, inhibition of RppH reactivity with ppAG RNA) is approximately 59 µM; on Escherichia coli RppH [3] (0.1 mM pppAG RNA, nucleotide 0.1-5.0 mM, 10 mM Mg2+, pH 7.5, 10 min, n = 2, mean ± SE, read-out: IC50, inhibition of RppH reactivity with pppAG RNA) it was approximately 32 µM. On Escherichia coli RppH [1] (pH 8.0), the “hydrolysis by RppH (TLC)” value is listed as “almost all”.

Turning to `F` [fluoride], the “effect on E. coli RppH activity (TLC)” value on Escherichia coli RppH [1] (NaF 1-10 mM, GTP and GDP at pH 8.0, pppGpp and ppGpp at pH 7.5) is “Inhibition”.

Take `Nc1nc2c(ncn2[C@@H]2O[C@H](COP(=O)(O)OP(=O)(O)OP(=O)(O)O)[C@@H](OP(=O)(O)OP(=O)(O)O)[C@H]2O)c(=O)[nH]1` [pppGpp]: the “initial reaction rate” value at Escherichia coli RppH [2] was found to be 1.30 ± 0.10 µM/min. The “times less reactive than GTP” value at Escherichia coli RppH [2] (ratio of initial rates, pH 7.5) is listed as approximately 2.4. For the same molecule, the “hydrolysis by RppH (TLC)” value is on record as “very slow hydrolysis” at Escherichia coli RppH [1] (pH 7.5) and “moderate hydrolysis” at Escherichia coli RppH [1] (pH 8.0).

In the case of `Nc1nc2c(ncn2[C@@H]2O[C@H](COP(=O)(O)OP(=O)(O)O)[C@@H](OP(=O)(O)OP(=O)(O)O)[C@H]2O)c(=O)[nH]1` [ppGpp], the “initial reaction rate” value on Escherichia coli RppH [2] is 1.20 ± 0.07 µM/min. Besides, the “times less reactive than GDP” value on Escherichia coli RppH [2] (ratio of initial rates, pH 7.5) is on record as approximately 2.8. Further, the entries for the “hydrolysis by RppH (TLC)” value on Escherichia coli RppH [1] (pH 7.0), on Escherichia coli RppH [1] (pH 7.5) and on Escherichia coli RppH [1] (pH 8.0) were “slow hydrolysis”, “About half” and “most”, respectively.

As to `Nc1nc2c(ncn2[C@@H]2O[C@H](COP(=O)(O)OP(=O)(O)OP(=O)(O)O)[C@@H](O)[C@H]2O)c(=O)[nH]1` [GTP, guanosine triphosphate], the “hydrolysis by RppH in the presence of Mg2+” value on Escherichia coli RppH [4] (10 mM MgCl2, pH 7.5-9.0, 1 h) is “support hydrolysis most; also recorded: most efficiently”. The “hydrolysis by RppH in the presence of Mn2+” value on Escherichia coli RppH [4] (10 mM MnCl2, pH 7.5-9.0, 1 h) is reported as “very low efficiency; also recorded: some activity”. In addition, the “hydrolysis by RppH in the presence of Ni2+ or Ca2+” value on Escherichia coli RppH [4] (10 mM NiCl2 or CaCl2, pH 7.5-9.0, 1 h) is “do not support hydrolysis; also recorded: no activity”. Moreover, the “undigested substrate remaining at plateau” value on Escherichia coli RppH [2] (setting [6]) is reported as approximately 70%. Also, on Escherichia coli RppH [2], the “initial reaction rate” value came out at 3.1 ± 0.13 µM/min. Besides, the half-maximal inhibitory concentration (IC50) was approximately 4100 µM on Escherichia coli RppH [3]; 1580 µM at Escherichia coli RppH [3] (IC50, inhibition of RppH reactivity with pppAG RNA, 0.1 mM pppAG RNA, nucleotide 0.1-5.0 mM, 10 mM Mg2+, pH 7.5, 10 min, n = 2, mean ± SE); 1600 to 4100 µM at Escherichia coli RppH [3] (IC50, range over pppAG and ppAG RNA substrates, pppAG and ppAG RNA); approximately 4100 µM on Escherichia coli RppH [3] (concentration to achieve 2-fold inhibition of the reaction of RppH with ppAG, ppAG RNA); approximately 1600 µM on Escherichia coli RppH [3] (concentration to achieve 2-fold inhibition of the reaction of RppH with pppAG, pppAG RNA). The “hydrolysis by RppH (TLC)” value on Escherichia coli RppH [1] (pH 8.5 and 9.0) is on record as “majority”.

In the case of `Nc1ccn([C@@H]2O[C@H](COP(=O)(O)OP(=O)(O)O)[C@@H](O)[C@H]2O)c(=O)n1` [CDP], the “hydrolysis by RppH (TLC)” value on Escherichia coli RppH [1] (pH 8.0) was “almost all”.

In the case of `O=c1ccn([C@@H]2O[C@H](CO[P@@](=O)(O)O[P@@](=O)(O)OP(=O)(O)O)[C@@H](O)[C@H]2O)c(=O)[nH]1` (stereo in doubt) [UTP, uridine triphosphate], the “hydrolysis by RppH (TLC)” value on Escherichia coli RppH [1] (pH 8.5 and 9.0) is “majority”.

On to `Nc1ncnc2c1ncn2[C@@H]1O[C@H](COP(=O)(O)OP(=O)(O)OP(=O)(O)O)[C@@H](O)[C@H]1O` [ATP, adenosine triphosphate], for which, on Escherichia coli RppH [2] (setting [6]), the “undigested substrate remaining at plateau” value is reported as approximately 70%. Further, the “initial reaction rate” value on Escherichia coli RppH [2] came to 4.2 ± 0.24 µM/min. Besides, the “hydrolysis by RppH (TLC)” value at Escherichia coli RppH [1] (pH 8.5 and 9.0) is “all”.

B1: RppHt (E. coli RppH, Δ161-176 and Q159A/E160A) (enzyme, Escherichia coli)
chain: SMIDDDGYRPNVGIVICNRQGQVMWARRFGQHSWQFPQGGINPGESAEQAMYRELFEEVGLSRKDVRILASTRNWLRYKLPKRLVRWDTKPVCIGQKQKWFLLQLVSGDAEINMQTSSTPEFDGWRWVSYWYPVRQVVSFKRDVYRRVMKEFASVVMSLAA
notes: extra serine (Ser0) left at the N-terminus by the ULP1 cleavage of the His10-SUMO tags; RNA pyrophosphohydrolase RppH, Escherichia coli, C-terminally truncated variant Δ161-176 (Met1 to residue 160) with Q159A/E160A; printed as Nterm-Ser0-Met1…Ala159-Ala160-Cterm; source: E. coli BL21(DE3), purified (HisTrap FF, tag cleavage by ULP1, HiTrap SP, Superdex 75); not shown: decahistidine, N-terminal, …
Consider B1, for which the binding result in assay [5] was “binds”.
